Measurements taken from patent US20170136010A1, “ORAL SOLID PREPARATION COMPRISING ARIPIPRAZOLE AND METHOD FOR PRODUCING ORAL SOLID PREPARATION COMPRISING ARIPIPRAZOLE” (OTSUKA PHARMACEUTICAL CO., LTD, priority 2013, published 2017).

Key:
Format in all cases: physicochemical
[1] = Hygroscopic test of aripiprazole anhydrous crystal, water content by Karl Fischer coulometric titration; conditions: for Water content level (wt %) after humidification: after 24 hours at 60° C. in desiccator including water; for Water content level (wt %) before humidification: before hygroscopic test
Description: About 1 g of aripiprazole obtained in the Synthesis Example was weighed in each of the weighing bottles having a diameter of about 5 cm. Each of the bottles was sealed with Kimwipe, and allowed to stand in a desiccator including water. The desiccator was placed in an oven at 60° C., and allowed to stand for 24 hours.
The weighing bottles were removed from the desiccator, and allowed to stand for 16 hours or more in a desiccator (room temperature/about 30% RH) including an MgCl2/6H2O saturated salt solution, thereby removing attached excess water. The water contents of the samples before and after the hygroscopic test were measured according to the following test procedure.
0.1 g of the aripiprazole obtained in the Synthesis Example and 0.1 g of the aripiprazole obtained after the hygroscopic test were accurately weighed. Using a moisture meter (CA-200) produced by Mitsubishi Chemical Analytech Co., Ltd., a test was performed according to the coulometric titration method, which is a water content measurement method (Karl Fischer method).

[2] = Hygroscopic test of finely milled powder, water content by Karl Fischer method; conditions: for Water content level (wt %), hygroscopic test of finely milled aripiprazole crystal, 24 hours: 60° C., humidity 100%
Description: The finely milled powder obtained above was evaluated by a hygroscopic test according to the following method.
About 1 g of milled powder was weighed in a weighing bottle with a diameter of 5 cm, allowed to stand in water/desiccator in which the temperature and humidity were respectively set to 60° C. and 100%, and then allowed to stand in MgCl2.6H2O saturated salt solution/desiccator having a room temperature and humidity of about 30% for 24 hours, Thereafter, the water content was measured. The water content was measured according to the Karl Fischer method by accurately measuring 0.1 g of a sample.

[3] = Mean particle size by laser diffraction scattering particle size distribution analyzer; conditions: volume mean diameter, dry
Description: The term “mean particle size” refers to volume mean diameter as calculated from the particle size distribution measured by a laser scattering particle size distribution analyzer analyzer.
The particle size of the resulting finely milled powder of highly hygroscopic aripiprazole anhydrous crystal was measured using Dry Unit 2000, which was a laser diffraction scattering particle size distribution analyzer (Laser Micron Sizer (LMS-2000e)), and the mean particle size was calculated from the obtained measurement results. […] The measurement conditions using a laser diffraction scattering particle size distribution analyzer were as follows: Particle refractive index: 1.750, imaginary part: 0.1, and dispersive pressure: 0.15 MPa.

Compound	Water content level (wt %) after humidification [1]	Water content level (wt %) before humidification [1]	Water content level (wt %), hygroscopic test of finely milled aripiprazole crystal, 0 hour [2]	Water content level (wt %), hygroscopic test of finely milled aripiprazole crystal, 24 hours [2]	Mean particle size [3]
O=C1CCc2ccc(OCCCCN3CCN(c4cccc(Cl)c4Cl)CC3)cc2N1 [Lot No. 1, 7-{4-[4-(2,3-dichlorophenyl)-1-piperazinyl]butoxy}-3,4-dihydrocarbostyril]	0.809 wt %	0.003 wt %	–	–	–
O=C1CCc2ccc(OCCCCN3CCN(c4cccc(Cl)c4Cl)CC3)cc2N1 [Lot No. 2, 7-{4-[4-(2,3-dichlorophenyl)-1-piperazinyl]butoxy}-3,4-dihydrocarbostyril]	2.759 wt %	0.032 wt %	–	–	–
O=C1CCc2ccc(OCCCCN3CCN(c4cccc(Cl)c4Cl)CC3)cc2N1 [Reference Example 1, 7-{4-[4-(2,3-dichlorophenyl)-1-piperazinyl]butoxy}-3,4-dihydrocarbostyril]	–	–	0.10 wt %	3.37 wt %	2.6 μm
O=C1CCc2ccc(OCCCCN3CCN(c4cccc(Cl)c4Cl)CC3)cc2N1 [compound 2, 7-{4-[4-(2,3-dichlorophenyl)-1-piperazinyl]butoxy}-3,4-dihydrocarbostyril]	–	–	0.21 wt %	3.69 wt %	5.1 μm
O=C1CCc2ccc(OCCCCN3CCN(c4cccc(Cl)c4Cl)CC3)cc2N1 [compound 3, 7-{4-[4-(2,3-dichlorophenyl)-1-piperazinyl]butoxy}-3,4-dihydrocarbostyril]	–	–	0.24 wt %	3.97 wt %	8.9 μm
O=C1CCc2ccc(OCCCCN3CCN(c4cccc(Cl)c4Cl)CC3)cc2N1 [compound 4, 7-{4-[4-(2,3-dichlorophenyl)-1-piperazinyl]butoxy}-3,4-dihydrocarbostyril]	–	–	0.29 wt %	3.90 wt %	9.6 μm
